The experiment is described as follows: Inhibition of HBV capsid assembly infected in human HepG2(2.2.15) cells assessed as inhibition of intracellular viral DNA level after 8 days by agarose gel electrophoresis method.

The source of these data is BindingDB's records for doi:10.1021/acs.jmedchem.6b01442 (Tsinghua University, 2017).

In the case of `CC(=O)Nc1ccc(-c2cc(C)c(=O)n(Cc3ccc(Cl)cc3)n2)cc1`, the IC50 came out at 1.9 µM.
